Reference: patent US12161628B2, “Combination therapy” (Medivation Prostate Therapeutics LLC, priority 2015, dated 2024)
Where “and” joins values, the source holds several entries; their conditions need not be identical. Equal values may be shown once. Read-outs that look alike come from different tables or passages of the source.

How the values were obtained:
[1] = Drug-drug interaction trial: plasma pharmacokinetics of enzalutamide, M1, M2 and sum of enzalutamide plus M2 after single 160 mg enzalutamide alone or with multiple doses of rifampin; details: for MPR (MWC): metabolite versus parent ratio (molecular weight corrected), Mean: based on AUCinf;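 on all read-outs here: human plasma pharmacokinetics in a two-arm drug interaction trial comparing enzalutamide given alone against enzalutamide given with rifampin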
Procedure: (§1) For all subjects in the rifampin treatment arm, the last quantifiable enzalutamide concentration was measured prior to the end of the rifampin dosing period (up to 13 days after enzalutamide dosing).
(§2) It should be noted that AUCs could only be accurately determined for 4 subjects in the enzalutamide treatment arm (treatment arm 1) and 6 subjects in the enzalutamide+rifampin treatment arm (treatment arm 2).

CYP3A4 = details: in vivo
Procedure: Data handling. […] In addition, for many subjects, urine samples taken post enzalutamide dose were not taken within 180 minutes of the ‘virtual’ enzalutamide dosing time (i.e., day 1 enzalutamide dosing time [enzalutamide treatment arm{treatment arm 1}] and day 8 enzalutamide dosing time [enzalutamide+rifampin treatment arm {treatment arm 2}]) and/or pre-dose of rifampin. The 6β-hydroxycortisol and cortisol concentrations of these urine samples and obtained 6β-hydroxycortisol/cortisol ratios were excluded from summary statistics.

[2] = human, in vivo
Procedure: as §1, §2

clinical = details: human, in vivo; for Vd/F: Vz/F
Procedure: as §1, §2

[3] = Rifampin plasma pharmacokinetics on day 8 after multiple doses of 600 mg once daily; assay type: in vivo, human (healthy volunteers); details: multiple doses of 600 mg rifampin once daily; for AUC / concentration at 2 h / Cmax / Tmax: human, plasma, oral, 600 mg
Procedure: Data handling. The actual sampling time of enzalutamide and its metabolites for 6 subjects (7 samples in total), and the actual sampling time of the 2-hour rifampin sample of subject 10002 on Day 21 deviated more than 10% of the scheduled time point.
In FIG. 7, individual and mean rifampin C2H plasma concentrations that were obtained during the entire dosing period of 21 days are presented.
Median tmax was reached 2 hours post-dose.

[4] = plasma, Enzalutamide (Reference), single 160 mg dose alone
[5] = plasma, single dose 160 mg enzalutamide alone
[6] = plasma, single dose 160 mg enzalutamide in the presence of multiple doses of 600 mg rifampin once daily (Test)

SMILES: CC1(C)C(=O)N(c2ccc(C#N)c(C(F)(F)F)c2)C(=S)N1c1ccc(C(N)=O)c(F)c1 [M2, N-desmethyl enzalutamide]
- AUC0-336hr higher in the presence of rifampin ([1]; compared to enzalutamide alone): 15%
- AUCinf lower in the presence of rifampin ([1]; compared to enzalutamide alone): 15%
- Cmax higher in the presence of rifampin ([1]; compared to enzalutamide alone): 34%
- AUCinf, Geometric LS Mean [1, 4]: 349.3 µg·h/mL
- Cmax, Geometric LS Mean [1, 4]: 737 ng/mL
- AUC0-336h, Mean [1, 5]: 197.6 µg·h/mL
- AUC0-336h, Median [1, 5]: 184.1 µg·h/mL
- AUC0-t, Mean [1, 5]: 344.3 µg·h/mL
- AUC0-t, Median [1, 5]: 338.3 µg·h/mL
- AUCinf, Mean [1, 5]: 354.0 µg·h/mL
- AUCinf, Median [1, 5]: 351.0 µg·h/mL
- Cmax, Mean [1, 5]: 754.6 ng/mL
- Cmax, Median [1, 5]: 714.5 ng/mL
- MPR (MWC): metabolite versus parent ratio (molecular weight corrected), Median [1, 5]: 1.373
- t1/2, Mean [1, 5]: 190.4 h
- t1/2, Median [1, 5]: 182.1 h
- tmax, Mean [1, 5]: 161.3 h
- MPR (MWC): metabolite versus parent ratio (molecular weight corrected), Mean [1, 5]: 1.385 and 1.431
- AUC0-336h, Mean [1, 6]: 224.0 µg·h/mL
- AUC0-336h, Median [1, 6]: 221.9 µg·h/mL
- AUC0-t, Mean [1, 6]: 292.1 µg·h/mL
- AUC0-t, Median [1, 6]: 293.5 µg·h/mL
- AUCinf, Mean [1, 6]: 297.9 µg·h/mL
- AUCinf, Median [1, 6]: 299.4 µg·h/mL
- Cmax, Mean [1, 6]: 994.9 ng/mL
- Cmax, Median [1, 6]: 1010 ng/mL
- MPR (MWC): metabolite versus parent ratio (molecular weight corrected), Median [1, 6]: 3.372
- t1/2, Mean [1, 6]: 154.7 h
- t1/2, Median [1, 6]: 152.5 h
- tmax, Mean [1, 6]: 66.75 h
- tmax, Median [1, 6]: 71.86 h
- MPR (MWC): metabolite versus parent ratio (molecular weight corrected), Mean [1, 6]: 3.443 and 3.558

SMILES: CNC(=O)c1ccc(N2C(=S)N(c3ccc(C#N)c(C(F)(F)F)c3)C(=O)C2(C)C)cc1F [Enzalutamide, 4-{3-[4-cyano-3-(trifluoromethyl)phenyl]-5,5-dimethyl-4-oxo-2-sulfanylideneimidazolidin-1-yl}-2-fluoro-N-methylbenzamide]
- Inductive effect on CYP3A4 (pharmacodynamic assessment) (CYP3A4): minimal inductive effect
- AUC0-336hr lower in the presence of rifampin [2]: 63%
- AUCinf lower in the presence of rifampin [2]: 66%
- % AUC (percentage extrapolated), range of individual values ([2]; 160 mg): 0.658-4.56%
- CL/F, Mean ([2]; 160 mg): 0.6330 L/h
- CL/F, Median ([2]; 160 mg): 0.6184 L/h
- AUC(0-inf) (clinical): 86.9 µg·h/mL
- AUC(0-t) (clinical): 86.8 µg·h/mL
- Cmax (clinical): 4520 ng/mL
- AUC(0-t) (clinical; 160 mg, AUC0-336h, Mean): 239 µg·h/mL
- AUC(0-t) (clinical; 160 mg, AUC0-336h, Median): 233 µg·h/mL
- AUC(0-t) (clinical; 160 mg, AUC0-t, Mean): 258 µg·h/mL
- AUC(0-t) (clinical; 160 mg, AUC0-t, Median): 254 µg·h/mL
- AUC(0-inf) (clinical; 160 mg, AUCinf, Geometric LS Mean): 257 µg·h/mL
- AUC(0-inf) (clinical; 160 mg, AUCinf, Mean): 262 µg·h/mL
- AUC(0-inf) (clinical; 160 mg, AUCinf, Median): 259 µg·h/mL
- Cmax (clinical; 160 mg, Cmax, Geometric LS Mean): 4860 ng/mL
- Cmax (clinical; 160 mg, Cmax, Mean): 4930 ng/mL
- Cmax (clinical; 160 mg, Cmax, Median): 5140 ng/mL
- Vd/F (clinical; 160 mg, Mean): 79.8 L
- Vd/F (clinical; 160 mg, Median): 78.1 L
- half-life (clinical; 160 mg, t1/2, Mean): 90.1 h
- half-life (clinical; 160 mg, t1/2, Median): 85.7 h
- Tmax (clinical; 160 mg, Mean): 1.08 h
- Tmax (clinical; 160 mg, Median): 0.91 h

SMILES: CO[C@H]1/C=C/O[C@@]2(C)Oc3c(C)c(O)c4c(O)c(c(/C=N/N5CCN(C)CC5)c(O)c4c3C2=O)NC(=O)/C(C)=C\C=C\[C@H](C)[C@H](O)[C@@H](C)[C@@H](O)[C@@H](C)[C@H](OC(C)=O)[C@@H]1C [Rifampin, rifampin]
- AUC ([3]; read-out: AUCtau, Mean): 35.6 µg·h/mL
- AUC ([3]; read-out: AUCtau, Median): 35.2 µg·h/mL
- concentration at 2 h ([3]; read-out: C2h, Mean): 6760 ng/mL
- concentration at 2 h ([3]; read-out: C2h, Median): 6620 ng/mL
- Cmax ([3]; read-out: Cmax, Mean): 7160 ng/mL
- Cmax ([3]; read-out: Cmax, Median): 7040 ng/mL
- Tmax ([3]; read-out: tmax, Mean): 1.72 h
- Tmax ([3]; read-out: tmax, Median): 2 h
- Cmin, Mean [3]: 0 ng/mL

SMILES: CC1(C)C(=O)N(c2ccc(C#N)c(C(F)(F)F)c2)C(=S)N1c1ccc(C(=O)O)c(F)c1 [M1]
- AUC0-336hr lower in the presence of rifampin [2]: 15%
- AUCinf lower in the presence of rifampin [2]: 32%
- AUC0-336h, Mean ([2]; 160 mg): 32.49 µg·h/mL
- AUC0-336h, Median ([2]; 160 mg): 31.38 µg·h/mL
- AUC0-t, Mean ([2]; 160 mg): 47.87 µg·h/mL
- AUC0-t, Median ([2]; 160 mg): 46.66 µg·h/mL
- AUCinf, Geometric LS Mean ([2]; 160 mg): 59.62 µg·h/mL
- AUCinf, Mean ([2]; 160 mg): 62.14 µg·h/mL
- AUCinf, Median ([2]; 160 mg): 57.39 µg·h/mL
- Cmax, Geometric LS Mean ([2]; 160 mg): 134.6 ng/mL
- Cmax, Mean ([2]; 160 mg): 141.4 ng/mL
- Cmax, Median ([2]; 160 mg): 135 ng/mL
- t1/2, Mean ([2]; 160 mg): 223.9 h
- t1/2, Median ([2]; 160 mg): 236.6 h
